Assay results published in ChEMBL document CHEMBL5442219.

Columns and labels:
Conditions in all cases: Compound concentration 10 µM
[1] = biological target: Histamine H4 receptor (Homo sapiens) (UniProt Q9H3N8)
[2] = biological target: T1, 5-hydroxytryptamine receptor 2C (Homo sapiens) (UniProt P28335)
T1 sequence (whole entry): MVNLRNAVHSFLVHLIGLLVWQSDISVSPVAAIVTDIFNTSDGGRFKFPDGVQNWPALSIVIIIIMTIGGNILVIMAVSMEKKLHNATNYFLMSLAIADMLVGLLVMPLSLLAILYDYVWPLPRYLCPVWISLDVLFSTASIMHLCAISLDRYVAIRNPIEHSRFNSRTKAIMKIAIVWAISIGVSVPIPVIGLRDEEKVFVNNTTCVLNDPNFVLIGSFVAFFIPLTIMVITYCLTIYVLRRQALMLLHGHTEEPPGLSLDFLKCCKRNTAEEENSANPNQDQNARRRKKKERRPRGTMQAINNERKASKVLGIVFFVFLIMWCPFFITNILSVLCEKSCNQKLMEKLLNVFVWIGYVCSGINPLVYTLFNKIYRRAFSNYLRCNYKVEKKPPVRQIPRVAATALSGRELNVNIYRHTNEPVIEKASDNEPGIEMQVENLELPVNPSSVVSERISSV

[3] = biological target: 5-hydroxytryptamine receptor 7 (Homo sapiens) (UniProt P34969)
[4] = biological target: 5-hydroxytryptamine receptor 5A (Homo sapiens) (UniProt P47898)
[5] = biological target: T2, 5-hydroxytryptamine receptor 3A (Homo sapiens) (UniProt P46098)
T2 sequence (whole entry): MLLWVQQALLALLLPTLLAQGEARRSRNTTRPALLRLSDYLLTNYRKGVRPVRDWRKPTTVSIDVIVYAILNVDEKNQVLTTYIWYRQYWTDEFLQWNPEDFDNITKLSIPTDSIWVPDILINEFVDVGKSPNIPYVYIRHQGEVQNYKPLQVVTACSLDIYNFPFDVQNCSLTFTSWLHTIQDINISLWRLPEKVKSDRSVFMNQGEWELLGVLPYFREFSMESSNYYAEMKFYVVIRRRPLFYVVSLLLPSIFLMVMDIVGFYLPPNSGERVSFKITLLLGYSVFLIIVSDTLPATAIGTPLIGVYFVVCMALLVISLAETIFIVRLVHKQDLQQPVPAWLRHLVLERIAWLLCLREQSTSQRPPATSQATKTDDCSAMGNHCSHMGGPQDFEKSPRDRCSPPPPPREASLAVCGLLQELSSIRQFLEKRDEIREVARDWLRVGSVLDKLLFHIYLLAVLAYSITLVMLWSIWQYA

[6] = biological target: D(3) dopamine receptor (Homo sapiens) (UniProt P35462)
[7] = biological target: Sodium-dependent noradrenaline transporter (Homo sapiens) (UniProt P23975)
[8] = biological target: 5-hydroxytryptamine receptor 1B (Homo sapiens) (UniProt P28222)
[9] = biological target: Sodium-dependent dopamine transporter (Homo sapiens) (UniProt Q01959)
[10] = biological target: Beta-2 adrenergic receptor (Homo sapiens) (UniProt P07550)
[11] = biological target: T3, Alpha-2C adrenergic receptor (Homo sapiens) (UniProt P18825)
T3 sequence (whole entry): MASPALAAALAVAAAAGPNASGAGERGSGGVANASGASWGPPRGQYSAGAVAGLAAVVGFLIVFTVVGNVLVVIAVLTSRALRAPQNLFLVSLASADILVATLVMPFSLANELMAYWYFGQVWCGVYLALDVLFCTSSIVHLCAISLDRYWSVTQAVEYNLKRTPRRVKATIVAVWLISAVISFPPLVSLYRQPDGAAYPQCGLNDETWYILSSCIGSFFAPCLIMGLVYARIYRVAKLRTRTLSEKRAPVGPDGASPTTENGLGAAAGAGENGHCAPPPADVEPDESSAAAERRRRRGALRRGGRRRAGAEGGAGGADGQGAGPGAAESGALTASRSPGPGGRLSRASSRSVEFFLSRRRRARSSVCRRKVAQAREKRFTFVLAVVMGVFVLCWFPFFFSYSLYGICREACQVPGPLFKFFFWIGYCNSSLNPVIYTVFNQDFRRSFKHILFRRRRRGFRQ

[12] = biological target: Translocator protein (Homo sapiens) (UniProt P30536)
[13] = biological target: T4, Alpha-2A adrenergic receptor (Homo sapiens) (UniProt P08913)
T4 sequence (whole entry): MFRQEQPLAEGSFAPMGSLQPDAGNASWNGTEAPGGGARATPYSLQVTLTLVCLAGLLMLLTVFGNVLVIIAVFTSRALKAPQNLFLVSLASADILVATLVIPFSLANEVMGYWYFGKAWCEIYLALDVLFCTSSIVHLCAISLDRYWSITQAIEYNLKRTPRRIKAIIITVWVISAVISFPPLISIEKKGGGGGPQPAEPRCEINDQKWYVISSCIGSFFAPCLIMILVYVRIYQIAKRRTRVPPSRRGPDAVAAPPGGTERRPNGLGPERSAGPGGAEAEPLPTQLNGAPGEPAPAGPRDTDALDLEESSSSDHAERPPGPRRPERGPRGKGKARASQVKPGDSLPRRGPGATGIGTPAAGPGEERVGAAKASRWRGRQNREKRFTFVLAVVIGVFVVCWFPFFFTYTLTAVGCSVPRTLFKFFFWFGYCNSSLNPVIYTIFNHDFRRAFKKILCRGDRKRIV

[14] = biological target: Kappa-type opioid receptor (Homo sapiens) (UniProt P41145)
[15] = biological target: 5-hydroxytryptamine receptor 1E (Homo sapiens) (UniProt P28566)
[16] = biological target: 5-hydroxytryptamine receptor 1D (Homo sapiens) (UniProt P28221)
[17] = biological target: 5-hydroxytryptamine receptor 2A (Homo sapiens) (UniProt P28223)
[18] = biological target: Histamine H1 receptor (Homo sapiens) (UniProt P35367)
Chain of Histamine H1 receptor (Homo sapiens) (P35367 whole entry): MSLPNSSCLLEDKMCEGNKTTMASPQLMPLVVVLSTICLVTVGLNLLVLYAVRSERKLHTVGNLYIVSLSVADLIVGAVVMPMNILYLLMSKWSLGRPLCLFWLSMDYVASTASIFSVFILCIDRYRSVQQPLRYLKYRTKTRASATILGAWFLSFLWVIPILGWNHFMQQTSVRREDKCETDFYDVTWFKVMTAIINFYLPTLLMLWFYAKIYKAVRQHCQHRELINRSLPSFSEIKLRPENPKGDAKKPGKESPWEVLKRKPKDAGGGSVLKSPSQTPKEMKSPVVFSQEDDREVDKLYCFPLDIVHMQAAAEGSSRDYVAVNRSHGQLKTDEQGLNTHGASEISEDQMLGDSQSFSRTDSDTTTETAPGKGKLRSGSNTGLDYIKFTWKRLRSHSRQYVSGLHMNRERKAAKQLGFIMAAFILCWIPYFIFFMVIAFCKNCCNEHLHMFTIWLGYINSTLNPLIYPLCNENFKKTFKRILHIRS

Chain of Beta-2 adrenergic receptor (Homo sapiens) (P07550 whole entry, looked up): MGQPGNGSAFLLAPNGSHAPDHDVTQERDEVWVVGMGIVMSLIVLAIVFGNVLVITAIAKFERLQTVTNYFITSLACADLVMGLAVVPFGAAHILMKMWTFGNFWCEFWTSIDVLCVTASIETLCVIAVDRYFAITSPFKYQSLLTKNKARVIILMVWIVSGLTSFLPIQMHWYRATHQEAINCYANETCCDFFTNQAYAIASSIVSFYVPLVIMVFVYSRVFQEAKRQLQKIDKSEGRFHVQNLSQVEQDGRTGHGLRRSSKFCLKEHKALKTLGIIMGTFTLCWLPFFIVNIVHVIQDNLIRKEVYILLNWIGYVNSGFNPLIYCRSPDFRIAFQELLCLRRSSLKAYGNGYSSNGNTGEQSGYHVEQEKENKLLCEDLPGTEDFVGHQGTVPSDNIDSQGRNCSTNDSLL
Chain of Sodium-dependent noradrenaline transporter (Homo sapiens) (P23975 whole entry): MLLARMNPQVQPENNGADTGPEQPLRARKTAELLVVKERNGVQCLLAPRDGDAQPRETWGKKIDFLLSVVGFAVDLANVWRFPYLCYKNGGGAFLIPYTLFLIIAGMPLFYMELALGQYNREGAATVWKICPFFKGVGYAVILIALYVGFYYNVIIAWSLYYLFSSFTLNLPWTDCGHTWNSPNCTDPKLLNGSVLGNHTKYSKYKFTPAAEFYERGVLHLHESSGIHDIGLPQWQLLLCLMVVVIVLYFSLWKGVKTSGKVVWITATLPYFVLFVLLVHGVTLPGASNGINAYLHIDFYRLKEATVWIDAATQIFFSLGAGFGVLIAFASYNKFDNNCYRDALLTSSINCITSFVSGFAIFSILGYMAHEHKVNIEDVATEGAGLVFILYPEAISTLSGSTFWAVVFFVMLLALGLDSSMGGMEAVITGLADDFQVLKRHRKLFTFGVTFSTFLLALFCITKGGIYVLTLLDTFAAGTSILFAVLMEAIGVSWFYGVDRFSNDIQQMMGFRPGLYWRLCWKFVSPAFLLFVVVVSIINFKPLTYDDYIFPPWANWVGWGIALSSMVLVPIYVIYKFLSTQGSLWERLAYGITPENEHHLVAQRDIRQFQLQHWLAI
Chain of D(3) dopamine receptor (Homo sapiens) (P35462 whole entry): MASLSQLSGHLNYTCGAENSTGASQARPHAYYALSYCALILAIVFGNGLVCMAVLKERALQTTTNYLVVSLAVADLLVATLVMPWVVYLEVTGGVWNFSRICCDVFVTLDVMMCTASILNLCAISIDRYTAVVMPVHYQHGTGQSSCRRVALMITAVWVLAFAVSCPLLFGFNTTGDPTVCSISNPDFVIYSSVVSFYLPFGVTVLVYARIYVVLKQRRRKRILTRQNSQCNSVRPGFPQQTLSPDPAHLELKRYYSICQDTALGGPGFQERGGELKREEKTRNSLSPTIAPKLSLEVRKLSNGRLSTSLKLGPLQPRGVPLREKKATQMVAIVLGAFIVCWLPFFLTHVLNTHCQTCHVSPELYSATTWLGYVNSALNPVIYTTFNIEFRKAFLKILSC
Chain of 5-hydroxytryptamine receptor 2A (Homo sapiens) (P28223 whole entry): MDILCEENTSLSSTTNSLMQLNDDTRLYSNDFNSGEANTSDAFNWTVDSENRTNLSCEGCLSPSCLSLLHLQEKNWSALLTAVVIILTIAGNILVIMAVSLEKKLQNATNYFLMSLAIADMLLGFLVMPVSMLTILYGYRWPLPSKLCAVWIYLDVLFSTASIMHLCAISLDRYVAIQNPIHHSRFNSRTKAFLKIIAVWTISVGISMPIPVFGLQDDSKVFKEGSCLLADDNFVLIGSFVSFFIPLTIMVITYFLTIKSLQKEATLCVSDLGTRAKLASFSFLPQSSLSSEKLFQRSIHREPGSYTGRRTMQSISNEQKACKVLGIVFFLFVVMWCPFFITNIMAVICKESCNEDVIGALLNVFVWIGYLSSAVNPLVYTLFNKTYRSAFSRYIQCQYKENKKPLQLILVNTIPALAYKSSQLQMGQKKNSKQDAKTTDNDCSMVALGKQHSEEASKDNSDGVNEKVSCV
Chain of 5-hydroxytryptamine receptor 1D (Homo sapiens) (P28221 whole entry): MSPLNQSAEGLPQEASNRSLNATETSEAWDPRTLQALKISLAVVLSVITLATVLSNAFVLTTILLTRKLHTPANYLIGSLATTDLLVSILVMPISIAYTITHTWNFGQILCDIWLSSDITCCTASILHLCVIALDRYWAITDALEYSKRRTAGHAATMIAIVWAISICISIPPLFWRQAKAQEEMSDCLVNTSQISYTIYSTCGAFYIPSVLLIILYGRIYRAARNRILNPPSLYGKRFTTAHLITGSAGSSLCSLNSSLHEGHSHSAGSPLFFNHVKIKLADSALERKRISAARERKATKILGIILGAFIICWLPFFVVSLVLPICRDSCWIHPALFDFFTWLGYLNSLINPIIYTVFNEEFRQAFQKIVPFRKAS
Chain of Histamine H4 receptor (Homo sapiens) (Q9H3N8 whole entry): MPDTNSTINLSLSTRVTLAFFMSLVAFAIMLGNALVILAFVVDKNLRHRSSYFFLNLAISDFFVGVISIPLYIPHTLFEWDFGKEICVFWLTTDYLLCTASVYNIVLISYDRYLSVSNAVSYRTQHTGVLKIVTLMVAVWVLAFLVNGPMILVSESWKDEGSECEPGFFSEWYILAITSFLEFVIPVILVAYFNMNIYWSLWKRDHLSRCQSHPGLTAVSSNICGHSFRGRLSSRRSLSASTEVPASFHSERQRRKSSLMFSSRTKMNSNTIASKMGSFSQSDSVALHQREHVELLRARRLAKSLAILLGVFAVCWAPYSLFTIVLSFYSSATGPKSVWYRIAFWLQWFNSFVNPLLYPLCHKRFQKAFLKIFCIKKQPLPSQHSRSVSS
Chain of Kappa-type opioid receptor (Homo sapiens) (P41145 whole entry): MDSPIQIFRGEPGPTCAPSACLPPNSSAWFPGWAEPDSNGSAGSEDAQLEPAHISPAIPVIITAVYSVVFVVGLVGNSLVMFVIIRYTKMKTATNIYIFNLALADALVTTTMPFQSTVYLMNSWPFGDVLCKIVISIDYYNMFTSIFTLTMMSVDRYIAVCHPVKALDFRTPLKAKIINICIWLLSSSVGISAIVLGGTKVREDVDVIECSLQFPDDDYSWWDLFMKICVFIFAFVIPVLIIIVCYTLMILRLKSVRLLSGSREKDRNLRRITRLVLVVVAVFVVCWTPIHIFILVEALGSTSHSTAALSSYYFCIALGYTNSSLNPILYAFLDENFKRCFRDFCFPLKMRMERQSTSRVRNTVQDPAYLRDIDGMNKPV
Chain of 5-hydroxytryptamine receptor 1B (Homo sapiens) (P28222 whole entry): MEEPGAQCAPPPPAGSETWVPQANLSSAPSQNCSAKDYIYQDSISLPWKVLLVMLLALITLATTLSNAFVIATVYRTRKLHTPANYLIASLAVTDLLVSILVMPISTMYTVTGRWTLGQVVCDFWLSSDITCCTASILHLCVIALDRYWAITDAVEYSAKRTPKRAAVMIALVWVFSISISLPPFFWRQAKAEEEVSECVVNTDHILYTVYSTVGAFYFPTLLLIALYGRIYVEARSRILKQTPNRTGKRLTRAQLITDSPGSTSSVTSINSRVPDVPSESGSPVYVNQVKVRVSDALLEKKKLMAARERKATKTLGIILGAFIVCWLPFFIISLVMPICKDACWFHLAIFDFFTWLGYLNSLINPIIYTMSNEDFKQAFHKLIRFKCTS
Chain of 5-hydroxytryptamine receptor 1E (Homo sapiens) (P28566 whole entry): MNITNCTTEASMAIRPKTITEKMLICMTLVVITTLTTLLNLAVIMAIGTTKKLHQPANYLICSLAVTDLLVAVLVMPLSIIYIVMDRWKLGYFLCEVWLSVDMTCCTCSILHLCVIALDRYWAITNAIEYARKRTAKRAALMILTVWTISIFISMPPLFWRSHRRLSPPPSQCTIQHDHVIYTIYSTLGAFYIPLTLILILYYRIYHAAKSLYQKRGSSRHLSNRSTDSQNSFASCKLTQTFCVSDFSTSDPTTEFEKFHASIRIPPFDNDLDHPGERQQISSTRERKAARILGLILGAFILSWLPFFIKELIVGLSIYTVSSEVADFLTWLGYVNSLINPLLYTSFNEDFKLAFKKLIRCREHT
Chain of Translocator protein (Homo sapiens) (P30536 whole entry): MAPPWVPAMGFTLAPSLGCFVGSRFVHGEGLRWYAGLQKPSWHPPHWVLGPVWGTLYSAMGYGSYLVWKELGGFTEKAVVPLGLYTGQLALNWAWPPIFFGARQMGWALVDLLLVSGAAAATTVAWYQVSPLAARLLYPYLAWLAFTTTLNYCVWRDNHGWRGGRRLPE
Chain of 5-hydroxytryptamine receptor 7 (Homo sapiens) (P34969 whole entry): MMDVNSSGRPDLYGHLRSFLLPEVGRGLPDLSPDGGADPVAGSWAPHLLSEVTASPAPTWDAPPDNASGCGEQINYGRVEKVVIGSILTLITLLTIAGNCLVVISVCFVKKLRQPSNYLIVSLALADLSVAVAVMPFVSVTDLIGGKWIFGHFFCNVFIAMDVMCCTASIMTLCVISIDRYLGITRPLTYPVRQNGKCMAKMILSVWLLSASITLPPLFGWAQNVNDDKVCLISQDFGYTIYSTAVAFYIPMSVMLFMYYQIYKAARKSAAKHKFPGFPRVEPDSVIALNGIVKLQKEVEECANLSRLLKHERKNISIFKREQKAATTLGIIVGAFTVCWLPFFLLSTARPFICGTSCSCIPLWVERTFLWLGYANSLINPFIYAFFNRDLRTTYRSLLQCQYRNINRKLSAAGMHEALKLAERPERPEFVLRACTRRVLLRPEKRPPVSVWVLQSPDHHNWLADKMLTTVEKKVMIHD

| Compound | inhibition [1] | inhibition [2] | inhibition [3] | inhibition [4] | inhibition [5] | inhibition [6] | inhibition [7] | inhibition [8] | inhibition [9] | inhibition [10] | inhibition [11] | inhibition [12] | inhibition [13] | inhibition [14] | inhibition [15] | inhibition [16] | inhibition [17] | inhibition [18] |
| --- | --- | --- | --- | --- | --- | --- | --- | --- | --- | --- | --- | --- | --- | --- | --- | --- | --- | --- |
| COc1cc2nc(N3CCN(C(=O)c4ccco4)CC3)nc(N)c2cc1OC | 1.83% | 3.9% | 23.8% | 83.4% | 2.09% | 37.6% | 26.5% | 27.2% | 29.4% | 1.53% | 97.1% | 75.9% | 42.3% | 11% | 2.33% | – | – | – |
| COC(=O)[C@H]1[C@H]2C[C@H]3c4[nH]c5ccccc5c4CCN3C[C@H]2CC[C@@H]1O | 8.74% | 2.54% | 85.2% | 48.2% | -2.94% | 31% | 43.4% | 98.4% | 6.37% | -6.47% | 98.7% | 7.14% | 98.3% | 19% | 96% | – | – | – |
| COc1ccc2[nH]cc(CCNC(C)=O)c2c1 | -3.64% | – | -7.65% | – | -3.39% | -7.6% | -9.78% | 12.5% | 29.5% | -1.29% | – | – | 8.96% | – | – | 17.3% | – | – |
| Cc1ccc(O)c([C@H](CCN(C(C)C)C(C)C)c2ccccc2)c1 | -9.16% | – | – | – | -0.33% | 46.2% | 29.7% | 25.3% | 16.2% | 19.5% | 14.9% | 13.8% | 20.2% | 31% | – | 41.2% | 11.4% | 83.1% |
| CC(C)(C(=O)O)c1ccc(C(O)CCCN2CCC(C(O)(c3ccccc3)c3ccccc3)CC2)cc1 (centres undefined) | -8.03% | -8.36% | 4.24% | – | – | 53% | – | 8.43% | 21.9% | -5.98% | -7.6% | -4.11% | -4.3% | – | -8.04% | 39.8% | – | – |
| O=c1ccn([C@@H]2O[C@H](COP(=O)(O)OP(=O)(O)OP(=O)(O)O)[C@@H](O)[C@H]2O)c(=O)[nH]1 | 4.53% | 9.66% | 3.3% | 16.9% | -3.36% | 22.3% | 11% | 7.75% | -7.04% | – | 6.85% | 56.6% | 11.6% | 47.6% | -2.1% | – | 46.4% | -0.29% |
| CNC[C@H](O)c1ccc(O)c(O)c1 | -7.99% | – | -8.3% | -0.93% | – | 47.1% | – | 11.1% | 32.7% | 34.2% | 66.7% | -0.39% | 49.1% | – | -5.3% | 15.8% | – | – |
| COc1ccc2cc(S(=O)(=O)N[C@H](CC(=O)N[C@H](Cc3ccc(CN4[C@H](C)CCC[C@@H]4C)cc3)C(=O)N(C)C(C)C)c3ccc4c(c3)OCO4)ccc2c1 | 9.34% | 19.7% | -0.02% | 20.3% | 12.8% | 26% | 25.7% | 31.1% | 36.8% | – | 71.8% | 0.6% | 39.4% | 96.7% | – | – | 28.8% | 33.1% |
| NC(=O)[C@@H]1CCCN1C(=O)[C@H](Cc1c[nH]cn1)NC(=O)[C@@H]1CCC(=O)N1 | 8.04% | -0.43% | -8.14% | 5.27% | 8.73% | 4.54% | 35.9% | 7.27% | 40.9% | – | 49.8% | 73.2% | 12.4% | 6.58% | -5.34% | – | 23.5% | 9.67% |
| CCCn1c(=O)c2nc(C34CC5CC(CC3C5)C4)[nH]c2n(CCC)c1=O | 6.77% | -0.12% | 5.98% | – | -9.26% | -4.54% | – | 19.3% | 50% | 4.88% | 9.01% | 25.5% | 10% | 4.62% | 14.2% | 23.4% | -7.63% | 8.71% |
| O=C1N/C(=N/c2ccccc2F)S/C1=C\c1ccc(C(=O)O)cc1 | -4.83% | – | – | – | -3.21% | 5.3% | 9.3% | -8.69% | 33.1% | 6.54% | 2.98% | 4.31% | – | – | 4.25% | 19% | -0.36% | 42.9% |
| Cc1ccccc1N1CCN(S(=O)(=O)C[C@]23CC[C@H](C[C@@H]2NC(=O)[C@@H](N)CCS(C)(=O)=O)C3(C)C)CC1 | -3.44% | -4.87% | 25.6% | -3.77% | -6.48% | – | – | 18.8% | 30.4% | 13.7% | 14.7% | -1.05% | 27.8% | 98.5% | 19.7% | -2.54% | 1.52% | 0.34% |
| O=C(O)Cn1c(C(=O)Nc2nc(-c3ccccc3Cl)cs2)cc2ccccc21 | 13.6% | 12.4% | – | 18.6% | – | 7.11% | – | 11.2% | 47.6% | -7.21% | 0.91% | 20.4% | 8.83% | 2.51% | 3.11% | 38.3% | – | -9.22% |
